Data reported in patent publication US12139475B2, “2-oxindole compounds” (CHEMOCENTRYX, INC., priority 2016, dated 2024).

Each compound was assayed against T1, CCR(9) (Homo sapiens, UniProt P51686) (assay: Serum chemotaxis assay (MOLT-4 cells, TECK-induced migration, ChemoTX)). Details: MOLT-4 cells in human serum, migration to recombinant human TECK, 90 minutes at 37° C.
T1 construct: MOLT-4 cells were collected by centrifugation at 400×g at room temperature, then suspended at 50 million/ml in human serum; host or cells: MOLT-4
T1 sequence (P51686 1-369): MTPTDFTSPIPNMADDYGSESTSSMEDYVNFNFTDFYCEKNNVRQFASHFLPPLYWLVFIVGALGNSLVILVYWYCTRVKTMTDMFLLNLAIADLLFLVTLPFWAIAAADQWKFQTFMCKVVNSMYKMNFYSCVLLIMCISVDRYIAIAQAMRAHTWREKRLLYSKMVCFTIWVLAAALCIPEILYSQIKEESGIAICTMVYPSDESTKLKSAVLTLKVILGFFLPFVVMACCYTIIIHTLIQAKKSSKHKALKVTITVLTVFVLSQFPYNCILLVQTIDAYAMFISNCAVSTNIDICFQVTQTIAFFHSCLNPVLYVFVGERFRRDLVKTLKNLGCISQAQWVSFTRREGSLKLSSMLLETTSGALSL
Type: cell-based
Experimental: MOLT-4 cells were obtained from the American Type Culture Collection (Manassas, VA) and cultured in RPMI tissue culture medium supplemented with 10% fetal calf serum (FCS) in a humidified 5% CO2 incubator at 37° C. Recombinant human chemokine proteins TECK was obtained from R&D Systems (Minneapolis, MN). ChemoTX™ chemotaxis microchambers were purchased from Neuro Probe (Gaithersburg, MD). CyQUANT™ cell proliferation kits were purchased from Molecular Probes (Eugene, Oregon). Calcium indicator dye Fluo-4 AM was purchased from Molecular Devices (Mountain View, CA).
A serum chemotaxis assay was used to determine the efficacy of potential receptor antagonists at blocking the migration mediated through chemokine receptors, such as CCR(9). This assay was performed using the ChemoTX® microchamber system with a 5-μm pore-sized polycarbonate membrane. MOLT-4 cells were collected by centrifugation at 400×g at room temperature, then suspended at 50 million/ml in human serum, containing 50 mM HEPES (final pH of 7.2). The compound being tested or an equivalent volume of its solvent (DMSO) was then added to the cell/serum mixture at a final DMSO concentration of 0.125% (v/v), and this mixture was then incubated together at 37° C. for one hour. Separately, recombinant human TECK was diluted with chemotaxis buffer (HBSS+0.1% BSA), generally spanning a range from 0.1 nM to 500 nM, after which 29 μl of diluted chemokine was placed in the lower wells of the ChemoTX® plate. The 5-μm (pore size) polycarbonate membrane was placed onto the plate, and 20 μL of the cell/compound mixture was transferred onto each well of the membrane. The plates were incubated at 37° C. for 90 minutes, after which the polycarbonate membranes were removed and 5 μl of the DNA-intercalating agent CyQUANT (Invitrogen, Carlsbad, CA) was added to the lower wells. The amount of fluorescence, corresponding to the number of migrated cells, was measured using a Spectrafluor Plus plate reader (TECAN, San Jose, CA).
The A2 values were calculated from the following equation, comparing the efficacy of the test compound with that of the DMSO-only control at equi-active chemokine levels: Log(A2)=log[drug(M)]−log[(A′/A)−1] where A reflects the potency of the agonist in the absence of antagonist and A′ reflects the potency of the agonist in the presence of antagonist at a given concentration of drug ([drug(M)]). In Vivo Efficacy Models for Human IBD

Chemotaxis A2	Structure (SMILES)
+++ (100 nM > A2)	CC(C)(C)c1ccc(C2(C)C(=O)N(c3cc(F)cc(C(=O)O)c3)c3ccc(Cl)cc32)cc1 (stereo not shown)
+++ (100 nM > A2)	CC1(C)CCc2cc([C@]3(C)C(=O)N(Cc4cc(Cl)ccc4C(=O)O)c4ccc(Cl)cc43)ccc2O1
+++ (100 nM > A2)	CCc1ccc(N2C(=O)[C@@](C)(c3ccc4c(c3)CCC(C)(C)O4)c3cc(Cl)ccc32)cc1C(=O)O
+++ (100 nM > A2)	CC1(C)CCc2cc([C@]3(C)C(=O)N(Cc4ccc(F)cc4C(=O)O)c4ccc(Cl)cc43)ccc2O1
